Laboratory results published in US6924302B2, “Substituted triazole diamine derivatives as kinase inhibitors” (Ortho McNeil Pharmaceutical, Inc., priority 2000, dated 2005).
pIC50: −log10 of the molar value. Where two headings read alike, the source gives them in different places.

Experiments:
Protein Kinase A = target: T1, Protein Kinase A (Bos taurus, UniProt P00517); assay: Kinase Selectivity Assay Protein Kinase A; type: biochemical, bovine; settings: Kinase Selectivity, Tables 2a-2k; read-out: PKA IC50
T1 construct: purified from bovine heart; purchased Upstate Biotech 14-114; host or cells: bovine heart
Experimental: (§1) Assays to test compound inhibition of other kinases were preformed using methods that measure the amount of phosphorylation of a biotinylated peptide substrate. Biotinylated peptide substrates were selected from the literature as appropriate for the enzyme being evaluated. […] Assay conditions vary slightly for each protein kinase, for example, insulin receptor kinase requires 10 mM MnCl2 for activity and Calmodulin-dependent protein kinase requires calmodulin and 10 mM CaCl2. These assay conditions are known in the art. The reaction mixture was dispensed into the wells of a streptavidin coated Flashplate and 1 μl drug stock in 100% DMSO was added to a 100 μl reaction volume resulting in a final concentration of 1% DMSO on the reaction. Enzyme was diluted in 50 mM Tris-HCl pH=8.0, 0.1% BSA and add to each well. The reaction was incubated for one hour at 30° C. in the presence of compound. After one hour the reaction mix was aspirated from the plate and the plate was washed with PBS containing 100 mM EDTA. The plate was read on a scintillation counter to determine ^33P-γ-ATP incorporated into the immobilized peptide. Test compounds were assayed in duplicate at 8 concentrations [100 uM, 10 uM, 1 uM, 100 nM, 10 nM, 1 nM, 100 pM, 10 pM]. A maximum and minimum signal for the assay was determined on each plate. The IC50 was calculated from the dose response curve of the percent inhibition of the maximum signal in the assay according to the formula [max signal—background/test compound signal—background (100)=% inhibition] by graphing the percent inhibition against the log concentration of test compound. Known inhibitor compounds appropriate for the kinase being assayed were also included on each plate.
(§2) CDK2 in complex with cyclin A is commercially available (Upstate Biotech, Lake Placid, N.Y.). The CDK4 complex was composed of a mouse CDK4 protein and a mouse Cyclin D1 protein (The mouse CDK4 protein was genetically fused to an N-terminal Flag-epitope tag and the mouse Cyclin D1 protein was fused with an N-terminal AU-1 epitope tag. The genes encoding these proteins were transferred to commercially available baculoviral vectors. The recombinant CDK4/D1 complex was then made by co-infecting commercially available insect cells with viruses carrying these two constructs). […] ERK-1 protein (Discontinued from Calbiochem). EGFR (epidermal growth factor receptor) is purified from human A431 cell membranes (Sigma, St. Louis, Mo., Cat.# E3641).

[1] = target: T2, Casein Kinase 2 (alpha and beta subunits) (Homo sapiens, UniProt P68400); assay: Kinase Selectivity Assay Casein Kinase 2; type: biochemical; settings: Kinase Selectivity, Tables 2a-2k; read-out: Caseine Kinase 2 IC50
T2 construct: purchased New England Biolabs 6010; host or cells: E. coli
Experimental: as §1, §2

[2] = target: T3, PDGF-R (platelet derived growth factor receptor) beta subunit kinase domain (Homo sapiens, UniProt P09619); assay: Kinase Selectivity Assay PDGF-R; type: biochemical; settings: Kinase Selectivity, Tables 2a-2k; read-out: PDGF-R kinase IC50
T3 construct: nucleotides 1874-3507 of the human PDGF-R beta subunit kinase domain; polyhistidine (N)
Experimental: as §1, §2

[3] = target: T4, Casein Kinase 1 (CK1 delta isoform) (Rattus norvegicus, UniProt Q06486); assay: Kinase Selectivity Assay Casein Kinase 1; type: biochemical; settings: Tables 2a-2k, read-out: Caseine Kinase 1 IC50
T4 construct: a truncation at amino acid 318 of the C-terminal portion of the rat CK1 delta isoform; purchased New England Biolabs 6030; host or cells: E. coli
T4 sequence (Q06486 1-317): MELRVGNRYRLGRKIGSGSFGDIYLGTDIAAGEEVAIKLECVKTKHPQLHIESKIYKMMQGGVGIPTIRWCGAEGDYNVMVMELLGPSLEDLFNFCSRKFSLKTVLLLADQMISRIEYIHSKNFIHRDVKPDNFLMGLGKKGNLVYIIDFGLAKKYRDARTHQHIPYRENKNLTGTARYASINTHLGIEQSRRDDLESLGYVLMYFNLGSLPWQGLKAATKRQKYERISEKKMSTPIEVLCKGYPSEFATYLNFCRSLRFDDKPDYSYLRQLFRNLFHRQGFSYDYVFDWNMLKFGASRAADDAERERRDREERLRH
Experimental: as §1, §2

[4] = target: T5, CDK2 in complex with cyclin A (Homo sapiens, UniProt P24941); assay: Kinase Selectivity Assay CDK2; type: biochemical; settings: Table 1
T5 construct: purchased Upstate Biotech
Experimental: as §1, §2

FGF-R2 = FGF-R2 (Homo sapiens, UniProt P21802); assay: Kinase Selectivity Assay FGF-R2; type: biochemical; settings: Tables 2a-2k
Experimental: as §1

[5] = target: T6, Glycogen Synthase Kinase-3 (beta isoform) (Oryctolagus cuniculus, UniProt G1T8E2); assay: Kinase Selectivity Assay Glycogen Synthase Kinase-3; type: biochemical, rabbit; settings: Kinase Selectivity, Tables 2a-2k; read-out: GSK-3 IC50
T6 construct: purchased New England Biolabs 6040; host or cells: E. coli
Experimental: as §1, §2

HCT-116 colon carcinoma = assay: Inhibition of Cell Proliferation (14C-thymidine incorporation), HCT-116; type: cell-based; settings: Homo sapiens, HCT-116 cell line
Experimental: (§3) The ability of a test compound to inhibit the proliferation of cell growth was determined by measuring incorporation of ^14C-labelled thymidine into newly synthesized DNA within the cells. This method was used on cell lines derived from carcinomas originating from several tissues such as HeLa cervical adenocarcinoma (American Type Culture Collection (ATCC), Virginia, Cat. #CCL-2), A375 malignant melanoma (ATCC CRL-1619), SK-OV-3 ovarian adenocarcinoma (ATCC HTB-77) HCT-116 colon carcinoma (CCL-247), PC-3 prostate adenocarcinoma (ATCC CRL-1435), and MDA-MB-231 (Xenogen Corp.) In this way the effect of a compound on cell growth of cells with many different phenotypes can be determined. Cells were trypsinized and counted and 3000-8000 cells were added to each well of a 96-well CytoStar tissue culture treated scintillating microplate (Amersham #RPNQ0160) in complete medium in a volume of 100 μl. Cells were incubated for 24 hours in complete medium at 37° C. in an atmosphere containing 5% CO2. Next, 1 μl of test compound in 100% DMSO was added to the wells of the plate. DMSO only was added to control wells. Cells were incubated for 24 more hours in complete medium at 37° C. in an atmosphere containing 5% CO2. Methyl ^14C-thymidine 56 mCi/mmol (NEN #NEC568 or Amersham #CFA532) was diluted in complete medium and 0.2 uCi/well was added to each well of the CytoStar plate in a volume of 20 μl. The plate was incubated for 24 hours at 37° C. plus 5% CO2 in drug plus ^14C-thymidine. The contents of the plate were discarded into a ^14C radioactive waste container by inverting the plate and the plate was washed twice with 200 μl PBS. 200 μl of PBS is added to each well. The top of the plate was sealed with a transparent plate sealer and a white plate backing sealer (Packard #6005199) was applied to the bottom of the plate. The degree of methyl ^14C-thymidine incorporation was quantified on a Packard Top Count.

[6] = test system: PC-3 prostate adenocarcinoma; assay: Inhibition of Cell Proliferation (14C-thymidine incorporation), PC-3; type: cell-based; settings: Homo sapiens, PC-3 cell line
Experimental: as §3

[7] = target: T7, Calmodulin Kinase (calmodulin-dependent protein kinase 2) (Rattus norvegicus, UniProt P11275); assay: Kinase Selectivity Assay Calmodulin Kinase; type: biochemical; settings: Kinase Selectivity, Tables 2a-2k; read-out: Calmodulin Kinase 2 IC50
T7 construct: a truncated version of the alpha subunit of the rat protein; purchased New England Biolabs 6060; host or cells: insect cells
Experimental: as §1, §2

Insulin Receptor Kinase = Insulin Receptor Kinase (Homo sapiens, UniProt P06213); assay: Kinase Selectivity Assay Insulin Receptor Kinase; type: biochemical; settings: Kinase Selectivity, Tables 2a-2k; read-out: Insulin R Kinase IC50
Experimental: as §1, §2

[8] = target: T8, MAP Kinase (ERK-2 isoform) (Rattus norvegicus, UniProt P63086); assay: Kinase Selectivity Assay MAP Kinase (ERK-2); type: biochemical; settings: Kinase Selectivity, Tables 2a-2k; read-out: ERK 2 IC50
T8 construct: polyhistidine (N); host or cells: E. coli
Experimental: as §1, §2

[9] = test system: HeLa cervical adenocarcinoma; assay: Inhibition of Cell Proliferation (14C-thymidine incorporation), HeLa; type: cell-based; settings: Homo sapiens, HeLa cell line
Experimental: as §3

[10] = target: PKC (protein kinase-C), gamma or beta isoform; assay: Kinase Selectivity Assay PKC; type: biochemical, human; settings: Tables 2a-2k
Experimental: as §1
CDK2 in complex with cyclin A is commercially available (Upstate Biotech, Lake Placid, N.Y.). […]

[11] = target: T9, VEGF-R (vascular endothelial growth factor receptor-2) (Rattus norvegicus, UniProt O08775); assay: VEGF-R Screening Assay; type: biochemical; settings: read-out: VEGF-R IC50
T9 construct: polyhistidine (6xHIS) (N)

[12] = target: T10, HER2 (human epidermal growth factor receptor-2) (Homo sapiens, UniProt P04626); assay: Kinase Selectivity Assay HER2; type: biochemical
T10 construct: begins at amino acid 676 followed by the remainder of the HER2 cytoplasmic domain; polyhistidine (N)
Outline: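 Radiometric Flashplate format: ^33P-γ-ATP transfer to immobilized biotinylated peptide, 1 h, 30° C, 1% DMSO final, enzyme in 50 mM Tris-HCl pH=8.0 + 0.1% BSA. Duplicate 8-point dilution, 100 uM down to 10 pM. IC50 from % inhibition of plate max signal versus log conc.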

A375 malignant melanoma = assay: Inhibition of Cell Proliferation (14C-thymidine incorporation), A375; type: cell-based; settings: Homo sapiens, A-375, A375 cell line
Experimental: as §3

[13] = Kinase Selectivity, Tables 2a-2k, read-out: HER2 Kinase IC50

Sequence of Insulin Receptor Kinase (P06213 980-1352): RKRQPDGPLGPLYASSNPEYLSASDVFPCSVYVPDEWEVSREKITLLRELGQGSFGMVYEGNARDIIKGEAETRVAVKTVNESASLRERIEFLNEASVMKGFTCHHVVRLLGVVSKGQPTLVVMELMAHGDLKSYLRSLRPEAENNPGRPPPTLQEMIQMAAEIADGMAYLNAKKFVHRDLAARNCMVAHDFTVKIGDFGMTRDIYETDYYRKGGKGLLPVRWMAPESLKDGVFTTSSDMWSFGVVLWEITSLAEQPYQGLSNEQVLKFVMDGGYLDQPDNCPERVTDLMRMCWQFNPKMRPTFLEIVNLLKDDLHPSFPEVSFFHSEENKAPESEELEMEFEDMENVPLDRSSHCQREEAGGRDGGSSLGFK
Sequence of FGF-R2 (P21802 22-821, species assumed): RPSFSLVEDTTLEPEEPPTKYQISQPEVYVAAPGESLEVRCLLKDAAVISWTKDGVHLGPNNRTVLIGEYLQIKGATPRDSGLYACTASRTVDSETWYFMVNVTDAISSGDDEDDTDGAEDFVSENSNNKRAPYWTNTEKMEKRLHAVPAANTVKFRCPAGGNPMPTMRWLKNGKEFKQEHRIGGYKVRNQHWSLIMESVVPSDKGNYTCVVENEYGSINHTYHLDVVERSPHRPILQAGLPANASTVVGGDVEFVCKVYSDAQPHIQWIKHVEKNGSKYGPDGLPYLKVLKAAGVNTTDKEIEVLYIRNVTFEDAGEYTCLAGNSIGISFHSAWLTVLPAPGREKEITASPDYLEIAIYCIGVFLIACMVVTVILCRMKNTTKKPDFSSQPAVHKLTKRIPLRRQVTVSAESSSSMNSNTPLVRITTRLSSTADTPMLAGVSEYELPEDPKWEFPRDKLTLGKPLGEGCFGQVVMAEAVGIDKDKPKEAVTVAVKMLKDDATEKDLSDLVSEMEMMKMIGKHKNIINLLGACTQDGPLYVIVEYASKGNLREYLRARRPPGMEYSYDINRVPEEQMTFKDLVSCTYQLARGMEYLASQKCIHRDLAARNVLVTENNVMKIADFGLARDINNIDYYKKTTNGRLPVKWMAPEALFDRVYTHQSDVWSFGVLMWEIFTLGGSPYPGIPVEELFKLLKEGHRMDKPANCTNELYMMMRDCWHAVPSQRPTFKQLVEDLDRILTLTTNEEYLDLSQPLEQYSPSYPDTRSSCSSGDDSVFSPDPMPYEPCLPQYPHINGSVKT
T8 sequence (P63086 whole entry, canonical isoform): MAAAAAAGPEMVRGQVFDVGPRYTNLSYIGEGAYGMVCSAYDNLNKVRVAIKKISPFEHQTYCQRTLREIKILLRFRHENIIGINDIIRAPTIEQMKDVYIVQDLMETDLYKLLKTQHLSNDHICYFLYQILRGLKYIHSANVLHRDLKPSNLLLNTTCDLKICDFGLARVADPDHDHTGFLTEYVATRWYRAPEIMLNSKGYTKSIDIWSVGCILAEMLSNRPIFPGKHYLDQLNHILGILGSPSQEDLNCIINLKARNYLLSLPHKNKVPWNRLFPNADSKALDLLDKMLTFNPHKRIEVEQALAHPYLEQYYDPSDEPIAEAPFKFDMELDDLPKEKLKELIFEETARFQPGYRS
T2 sequence (P68400 whole entry): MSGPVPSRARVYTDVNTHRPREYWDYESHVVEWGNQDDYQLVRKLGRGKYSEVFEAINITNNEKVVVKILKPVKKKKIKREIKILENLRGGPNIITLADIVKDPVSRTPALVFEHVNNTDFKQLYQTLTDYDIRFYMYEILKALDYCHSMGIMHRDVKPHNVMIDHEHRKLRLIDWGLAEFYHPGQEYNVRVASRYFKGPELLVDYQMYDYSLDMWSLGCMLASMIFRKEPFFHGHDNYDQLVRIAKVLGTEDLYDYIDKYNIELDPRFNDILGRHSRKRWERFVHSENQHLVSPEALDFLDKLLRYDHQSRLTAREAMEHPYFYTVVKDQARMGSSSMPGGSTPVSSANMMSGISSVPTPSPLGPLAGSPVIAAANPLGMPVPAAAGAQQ
T2 sequence (P67870 whole entry partner): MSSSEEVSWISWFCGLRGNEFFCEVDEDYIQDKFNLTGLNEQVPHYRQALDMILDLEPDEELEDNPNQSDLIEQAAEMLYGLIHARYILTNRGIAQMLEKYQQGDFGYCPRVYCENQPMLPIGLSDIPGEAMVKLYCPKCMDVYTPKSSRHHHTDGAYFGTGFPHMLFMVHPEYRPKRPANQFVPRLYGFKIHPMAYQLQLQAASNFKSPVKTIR
T6 sequence (G1T8E2 1-432): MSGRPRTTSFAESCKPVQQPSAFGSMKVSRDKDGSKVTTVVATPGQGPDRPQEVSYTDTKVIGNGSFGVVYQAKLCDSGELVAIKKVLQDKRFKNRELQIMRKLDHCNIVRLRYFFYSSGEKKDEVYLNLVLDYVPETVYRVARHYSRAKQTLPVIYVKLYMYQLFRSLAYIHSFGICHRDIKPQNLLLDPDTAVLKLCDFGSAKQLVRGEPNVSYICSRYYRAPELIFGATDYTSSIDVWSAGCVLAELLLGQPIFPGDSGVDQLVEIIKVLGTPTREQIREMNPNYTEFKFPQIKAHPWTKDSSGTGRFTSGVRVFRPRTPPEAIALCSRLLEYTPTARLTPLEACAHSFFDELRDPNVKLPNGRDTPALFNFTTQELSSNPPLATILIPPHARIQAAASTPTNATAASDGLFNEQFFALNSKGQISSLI
T10 sequence (P04626 676-1255 limits assumed): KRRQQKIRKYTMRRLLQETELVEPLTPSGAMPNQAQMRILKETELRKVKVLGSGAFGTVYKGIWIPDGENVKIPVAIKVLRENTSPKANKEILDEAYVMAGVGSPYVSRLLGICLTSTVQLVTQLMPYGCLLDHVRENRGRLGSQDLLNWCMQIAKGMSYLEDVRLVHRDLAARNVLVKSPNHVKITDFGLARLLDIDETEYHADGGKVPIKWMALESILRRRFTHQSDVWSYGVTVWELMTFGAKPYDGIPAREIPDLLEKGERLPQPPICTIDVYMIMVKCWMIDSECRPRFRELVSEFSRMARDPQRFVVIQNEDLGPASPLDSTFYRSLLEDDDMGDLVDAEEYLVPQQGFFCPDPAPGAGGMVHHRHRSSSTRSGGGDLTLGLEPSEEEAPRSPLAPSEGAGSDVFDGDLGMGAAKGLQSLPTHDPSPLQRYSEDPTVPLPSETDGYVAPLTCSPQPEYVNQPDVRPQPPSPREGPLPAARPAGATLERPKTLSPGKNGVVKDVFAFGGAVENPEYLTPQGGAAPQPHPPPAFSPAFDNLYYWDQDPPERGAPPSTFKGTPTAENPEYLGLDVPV
T3 sequence (P09619 564-1106): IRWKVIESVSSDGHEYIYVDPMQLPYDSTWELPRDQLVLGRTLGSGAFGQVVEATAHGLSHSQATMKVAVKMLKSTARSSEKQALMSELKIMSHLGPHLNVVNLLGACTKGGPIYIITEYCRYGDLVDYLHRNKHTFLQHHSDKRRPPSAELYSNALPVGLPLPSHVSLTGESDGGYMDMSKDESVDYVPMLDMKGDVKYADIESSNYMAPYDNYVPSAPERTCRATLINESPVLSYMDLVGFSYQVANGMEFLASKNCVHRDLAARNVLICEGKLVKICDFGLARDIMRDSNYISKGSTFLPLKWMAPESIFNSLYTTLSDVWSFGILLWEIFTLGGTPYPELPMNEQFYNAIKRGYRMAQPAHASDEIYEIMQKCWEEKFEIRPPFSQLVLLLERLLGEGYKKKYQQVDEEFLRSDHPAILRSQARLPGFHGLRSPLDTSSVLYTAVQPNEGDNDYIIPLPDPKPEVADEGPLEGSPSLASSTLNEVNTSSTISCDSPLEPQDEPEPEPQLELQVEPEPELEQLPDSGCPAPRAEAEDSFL
T9 sequence (O08775 786-1343): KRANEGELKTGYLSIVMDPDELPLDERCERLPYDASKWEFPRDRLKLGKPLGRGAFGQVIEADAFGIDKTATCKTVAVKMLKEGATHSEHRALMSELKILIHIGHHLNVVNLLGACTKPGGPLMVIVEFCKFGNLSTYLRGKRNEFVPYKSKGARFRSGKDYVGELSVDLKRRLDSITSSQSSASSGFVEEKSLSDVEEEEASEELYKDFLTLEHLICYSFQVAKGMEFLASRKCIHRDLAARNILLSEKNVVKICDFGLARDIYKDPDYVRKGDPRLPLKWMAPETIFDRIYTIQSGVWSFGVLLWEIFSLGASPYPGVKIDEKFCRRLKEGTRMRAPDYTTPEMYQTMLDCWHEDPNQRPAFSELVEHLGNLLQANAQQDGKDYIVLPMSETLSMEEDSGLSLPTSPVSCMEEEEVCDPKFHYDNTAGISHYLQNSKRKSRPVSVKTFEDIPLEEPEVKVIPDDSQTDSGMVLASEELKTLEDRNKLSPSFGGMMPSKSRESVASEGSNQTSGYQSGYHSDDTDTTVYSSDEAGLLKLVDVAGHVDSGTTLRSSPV

Row | SMILES | pIC50 (Protein Kinase A) | pIC50 [1] | pIC50 [2] | pIC50 [3] | pIC50 [4] | pIC50 (FGF-R2) | pIC50 [5] | IC50 (HCT-116 colon carcinoma) [nM] | IC50 [6] [nM] | pIC50 [7] | pIC50 (Insulin Receptor Kinase) | pIC50 [8] | IC50 [9] [nM] | pIC50 [10] | pIC50 ([11]; Kinase Selectivity, Tables 2a-2k) | pIC50 ([11]; Table 1) | pIC50 [12, 13] | pIC50 ([12]; Table 1, read-out: HER2 IC50) | IC50 (A375 malignant melanoma) [nM]
1 | Cc1ccsc1C(=O)n1nc(Nc2ccc(NS(C)(=O)=O)cc2)nc1N [Cpd 109] | < 4.00 | < 5.00 | 6.38 | 5.93 | 7.68 | 6.61 | 7.41 | 51 | 307 | < 4.00 | 5.56 | < 5.00 | 479 | – | – | – | – | – | –
2 | Cc1ccsc1C(=O)n1nc(Nc2ccc(-n3cncn3)cc2)nc1N [Cpd 99, 1-[(3-methyl-2-thienyl)carbonyl]-N^3-[4-(1H-1,2,4-triazol-1-yl)phenyl]-1H-1,2,4-triazole-3,5-diamine] | – | < 4.00 | 6.41 | < 6.00 | – | – | 7.52 | – | 1690 | < 4.00 | < 4.00 | < 4.00 | 3350 | < 4.00 | 7.01 | 7.01 | – | – | –
3 | CCc1ccc(C(=O)n2nc(Nc3ccc(S(=O)(=O)Nc4ccccn4)cc3)nc2N)s1 [Cpd 119] | < 4.00 | < 4.00 | < 5.00 | 6.12 | 8.52 | – | 8.22 | – | – | < 4.00 | – | < 4.00 | – | < 4.00 | – | – | 6.00 | ~6.00 | –
4 | CNS(=O)(=O)c1ccc(Nc2nc(N)n(C(=O)c3sc(C)cc3C)n2)cc1 [Cpd 83, 4-[[5-amino-1-[(3,5-dimethyl-2-thienyl)carbonyl]-1H-1,2,4-triazol-3-yl]amino]-N-methyl-benzenesulfonamide] | < 4.00 | < 4.00 | 6.95 | 6.56 | – | 7.66 | 8.15 | 192 | 12 | < 4.00 | < 5.00 | < 4.00 | 122 | – | – | – | 7.89 | 7.89 | 556
5 | Cc1cc(C)c(C(=O)n2nc(Nc3ccc(-n4ccnc4)cc3)nc2N)s1 [Cpd 92, 1-[(3,5-dimethyl-2-thienyl)carbonyl]-N^3-[4-(1H-imidazol-1-yl)phenyl]-1H-1,2,4-triazole-3,5-diamine] | < 4.00 | < 4.00 | 6.55 | < 5.00 | – | 6.62 | 7.68 | – | 1120 | 4.71 | 5.51 | < 4.00 | 269 | – | – | – | – | – | –
